Experimental findings from ChEMBL document CHEMBL5252653, “Design, Synthesis, and Bioevaluation of Dexmedetomidine Prodrug” (ACS Med Chem Lett, 2023) are described below.

Data set [1] concerns Rattus norvegicus. The data set is described as follows: Sedative activity in Sprague-Dawley rat at 10 to 110 microg/ml, iv administered as bolus dose by dixon analysis. The format is functional.
Data set [2] is described as follows: Prodrug conversion in Sprague-Dawley rat plasma assessed as dexmedetomidine release measured at 1 hr by HPLC analysis. The format is ADME, cell-free.
Data set [3] is described as follows: Toxicity in Sprague-Dawley rat assessed as survival rate at 2 times of EC50. Particulars: in vivo, read-out: Activity.
For data set [4], the species on record is Rattus norvegicus. The data set is described as follows: Sedative activity in Sprague-Dawley rat assessed as onset time at 2 times of EC50. In kind it is functional. Particulars: dose 10-110 µg/ml; route iv.
Data set [5] deals with Rattus norvegicus. The data set is described as follows: Sedative activity in Sprague-Dawley rat assessed as duration time at 2 times of EC50 administered as bolus dose. The format is functional.
Data set [6] is described as follows: Prodrug conversion in Sprague-Dawley rat assessed as dexmedetomidine release at 2 times of ED50. In kind it is ADME. Particulars: in vivo.
Data set [7] in a line: Cardiotoxicity in Sprague-Dawley rat assessed as reduction in heart rate at 20 to 80 microg/ml, iv administered as bolus dose by ECG analysis. In kind it is toxicity, organism-based. Particulars: in vivo, dose 20-80 µg/ml.

Each structure is given as a SMILES string.

As to `COC(=O)CCC(=O)OCn1cnc([C@@H](C)c2cccc(C)c2C)c1.Cl`, the ED50 – broadly, the dose at which the effect has come halfway, by size or by number of responders – in the data set with Rattus norvegicus [1] was 0.0301 mg/kg. The Drug metabolism result is “Metabolite_Detected” in data set [2] and 31.71 µg/kg in data set [6]. In data set [3], the survival is 100%. Besides, the Time in the data set filed under Rattus norvegicus [4] stood at 78.9 s; in the data set on Rattus norvegicus [5], 2733.9 s. In addition, the Activity entry in data set [7] is “Toxic”.

`CCOC(=O)CCC(=O)OCn1cnc([C@@H](C)c2cccc(C)c2C)c1.Cl` showed an ED50 in the data set on Rattus norvegicus [1] of 0.0273 mg/kg. The Drug metabolism entry was “Metabolite_Detected” in data set [2] and 27.67 µg/kg in data set [6]. In addition, in data set [3], the survival was determined as 100%. In addition, the results for the Time in the data set filed under Rattus norvegicus [4] and in the data set on Rattus norvegicus [5] were 116 s and 2484.1 s, respectively. Further, the Activity entry in data set [7] is recorded as “Toxic”.
